This is an account of results in ChEMBL document CHEMBL1150898, “Synthesis and dopamine receptor selectivity of the benzyltetrahydroisoquinoline, (R)-(+)-nor-roefractine” (J Nat Prod, 1998).

In one test the target is D(2) dopamine receptor (Rattus norvegicus, UniProt P61169). Briefly: Displacement of [3H]raclopride from rat striatal dopamine D2 receptor.
The next test concerns the target D(1A) dopamine receptor (Rattus norvegicus, UniProt P18901). Briefly: Displacement of [3H]SCH-23390 from rat striatal dopamine D1 receptor.
For a further test, the species on record is Rattus norvegicus. Kind of test: Selectivity for rat striatal dopamine D2 receptor over rat striatal dopamine D1 receptor.

Sequence of D(1A) dopamine receptor (P18901 whole entry): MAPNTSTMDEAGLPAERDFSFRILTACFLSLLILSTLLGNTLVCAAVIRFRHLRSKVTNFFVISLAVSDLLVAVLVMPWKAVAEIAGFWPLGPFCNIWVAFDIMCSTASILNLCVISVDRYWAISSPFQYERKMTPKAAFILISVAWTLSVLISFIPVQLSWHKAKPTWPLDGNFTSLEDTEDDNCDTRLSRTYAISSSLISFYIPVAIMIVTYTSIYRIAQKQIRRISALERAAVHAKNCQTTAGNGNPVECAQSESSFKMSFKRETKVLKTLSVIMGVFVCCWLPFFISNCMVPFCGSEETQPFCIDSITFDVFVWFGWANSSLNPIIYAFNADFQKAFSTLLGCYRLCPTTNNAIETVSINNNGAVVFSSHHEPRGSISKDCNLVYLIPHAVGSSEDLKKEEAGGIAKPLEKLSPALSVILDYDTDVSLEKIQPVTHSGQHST
Sequence of D(2) dopamine receptor (P61169 whole entry): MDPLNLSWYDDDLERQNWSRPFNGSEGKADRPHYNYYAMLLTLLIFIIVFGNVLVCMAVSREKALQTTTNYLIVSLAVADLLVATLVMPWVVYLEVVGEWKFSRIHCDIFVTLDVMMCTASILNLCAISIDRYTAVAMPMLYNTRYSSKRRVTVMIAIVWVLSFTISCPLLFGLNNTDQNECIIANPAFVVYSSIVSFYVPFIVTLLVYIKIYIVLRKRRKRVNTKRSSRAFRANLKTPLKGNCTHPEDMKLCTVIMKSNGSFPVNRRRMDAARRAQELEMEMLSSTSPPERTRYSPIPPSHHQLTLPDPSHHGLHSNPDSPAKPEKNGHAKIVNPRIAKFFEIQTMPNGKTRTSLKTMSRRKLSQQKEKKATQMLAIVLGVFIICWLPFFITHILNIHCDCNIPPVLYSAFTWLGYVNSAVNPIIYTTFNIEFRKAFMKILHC

On to `COc1cc2c(cc1O)[C@@H](Cc1ccc(O)cc1)NCC2`, for which the IC50 on D(2) dopamine receptor came to 130 nM; at D(1A) dopamine receptor it was 0.24 µM.
As for `COc1ccc(C[C@H]2NCCc3cc(O)c(OC)cc32)cc1` [NOR-ROEFRACTINE], the Selectivity ratio in the test listed under Rattus norvegicus was 6. In addition, the values for the IC50 at D(2) dopamine receptor and at D(1A) dopamine receptor were 5000 nM and 32.9 µM, respectively.
